Laboratory results published in patent US11369665B2, “Anti-inflammatory peptides and composition comprising the same” (GemVax & KAEL Co., Ltd., priority 2012, dated 2022).

Key:
[1] = tested on: reactive oxygen species; experiment: Reactive oxygen species by DCF-DA staining in neural stem cells; type: cell-based, rat; details: 20 μM amyloid-β protein, PEP-1 1 μM, 10 μM, 50 μM
Description: The mechanism of action of PEP-1's protective effect on apoptosis by amyloid-β protein was investigated. First, it was investigated whether PEP-1 is capable of minimizing the oxidative damage caused by amyloid-β protein. Change in generation of reactive oxygen species after treatment with amyloid-β protein and PEP-1 was observed by using DCF-DA staining (Molecular Probes, Eugene, Oreg.). In the group in which reactive oxygen species increased due to 20 μM of amyloid-β protein, the increased reactive oxygen species decreased by PEP-1 treatment (1 μM, 10 μM, 50 μM) (Refer to FIG. 13).

[2] = tested on: neural stem cells; experiment: Co-treatment amyloid-β and PEP-1: cell mobility (migration); type: cell-based, rat; details: 20 μM amyloid-β protein
From the text: Cell mobility is a vital matter due to the nature of neural stem cell. […] (Refer to FIG. 11).

[3] = tested on: neural stem cells; experiment: Co-treatment amyloid-β and PEP-1: viability (MMT and CCK-8 assay); type: cell-based, rat; details: 20 μM amyloid-β protein, co-treated 48 hours
Description: To determine whether PEP 1 has the effect of suppressing the neurotoxicity caused by amyloid-β protein, 20 μM amyloid-β protein and various concentrations of PEP-1 were co-treated for 48 hours. The cell viability and apoptosis were measured using MMT assay, CCK-8 assay, LDH assay and TUNEL assay, and neural stem cell proliferation by BrdU assay.
(Refer to FIG. 8). LDH assay was carried out for assessment of the degree of cell death as another method, and we confirmed that the increase in cell death by amyloid-β decreased by PEP-1, and efficacy was seen starting at 1 μM concentration (Refer to FIG. 9).

[4] = tested on: CD40Ligand; experiment: qPCR array in THP-1 cells; type: cell-based, human; details: LPS 10 ng/mL, 4 μM PEP-1, 4 h
Description: (§1) THP-1 cells (human monocytic leukemia derived cell line) were purchased from ATCC ([…] TYPE CULTURE COLLECTION®, Manassas, Va., USA) and cultured in RPMI-1640 (LIFE TECHNOLOGIES®, Carlsbad, Calif., USA) medium supplemented with 10% FBS (LIFE TECHNOLOGIES®), 1% penicillin/streptomycin (LIFE TECHNOLOGIES®), and 0.05 mM 2-mercaptoethanol (SIGMA-ALDRICH®, St. Louis, Mo., USA) at 37° C. in 5% CO2. THP-1 cells that normally grow in suspension were differentiated into an adherent macrophage-like phenotype in differentiation medium (complete growth medium containing 100 ng/mL phorbol 12-myristate 13-acetate (PMA, SIGMA-ALDRICH®)) for 24 hr. For differentiation, THP-1 cells (3×10^6 cells/plate, ˜95% confluency) were seeded into 10-cm tissue culture plates and incubated in differentiation medium.
(§2) Following differentiation, the macrophage-like THP-1 cells were washed twice using complete growth medium. Then, cells were treated with 10 ng/mL lipopolysaccharide (SIGMA-ALDRICH®) and/or 4 μM PEP-1 for 4 h at 37° C.
(§3) Total RNA was extracted and purified using RNeasy mini kit from QIAGEN® (Valencia, Calif., USA) following manufacturer's protocol. cDNAs were synthesized by reverse transcription using Reverse Transcription System from PROMEGA CORPORATION® (Madison, Wis., USA) according to the manufacturer's protocol.
(§4) Then, cDNA samples from THP-1 cells were used as template for real-time quantitative PCR (qPCR) analysis. For qPCR analysis, RT2 Profiler PCR Array kits were purchased from SABIOSCIENCES®/QIAGEN® (Valencia, Calif. USA). Four different PCR array kits analyzing separate signaling pathways used in the experiment are as follows: human signal transduction pathway finder, human inflammatory cytokines & receptors, human transcription factors, human NF-κB signaling pathway. PCR was performed with SYBR® Green qPCR detection system (QIAGEN®) using a BIO-RAD® (Hercules, Calif., USA) CFX 96 real-time PCR instrument. Thermocycling conditions were: 95° C. for 10 sec; 55° C. for 30 sec; 95° C. for 10 min; 95° C. for 10 sec, 55° C. for 30 sec, and 72° C. for 30 sec for 50 amplification cycles. Data represents the average value from three independent experiments, and % decrease was determined by the target gene expression in LPS treated samples vs. LPS+PEP-1 treated samples. Among 336 genes analyzed, only those showing statistically significant (p<0.05, student's t-test) % decrease were shown in table 7.

[5] = tested on: TNFR11B; experiment: qPCR array in THP-1 cells; type: cell-based, human; details: LPS 10 ng/mL, 4 μM PEP-1, 4 h
Description: as §1, §2, §3, §4

[6] = tested on: CCL4/MIP1β; experiment: qPCR array in THP-1 cells; type: cell-based, human; details: LPS 10 ng/mL, 4 μM PEP-1, 4 h
Description: as §1, §2, §3, §4

[7] = tested on: TNFα; experiment: qPCR array in THP-1 cells; type: cell-based, human; details: LPS 10 ng/mL, 4 μM PEP-1, 4 h
Description: as §1, §2, §3, §4

[8] = tested on: ILlRa; experiment: qPCR array in THP-1 cells; type: cell-based, human; details: LPS 10 ng/mL, 4 μM PEP-1, 4 h
Description: as §1, §2, §3, §4

[9] = tested on: CCL26/MIP4α; experiment: qPCR array in THP-1 cells; type: cell-based, human; details: LPS 10 ng/mL, 4 μM PEP-1, 4 h
Description: as §1, §2, §3, §4

[10] = tested on: IL17C; experiment: qPCR array in THP-1 cells; type: cell-based, human; details: LPS 10 ng/mL, 4 μM PEP-1, 4 h
Description: as §1, §2, §3, §4

[11] = tested on: GM-CSF; experiment: qPCR array in THP-1 cells; type: cell-based, human; details: LPS 10 ng/mL, 4 μM PEP-1, 4 h
Description: as §1, §2, §3, §4

[12] = tested on: ACSL5 (acyl-coA synthase); experiment: qPCR array in THP-1 cells; type: cell-based, human; details: LPS 10 ng/mL, 4 μM PEP-1, 4 h
Description: as §1, §2, §3, §4

[13] = tested on: BCL10; experiment: qPCR array in THP-1 cells; type: cell-based, human; details: LPS 10 ng/mL, 4 μM PEP-1, 4 h
Description: as §1, §2, §3, §4

[14] = tested on: IkBα; experiment: qPCR array in THP-1 cells; type: cell-based, human; details: LPS 10 ng/mL, 4 μM PEP-1, 4 h
Description: as §1, §2, §3, §4

[15] = tested on: IL10; experiment: qPCR array in THP-1 cells; type: cell-based, human; details: LPS 10 ng/mL, 4 μM PEP-1, 4 h
Description: as §1, §2, §3, §4

[16] = tested on: G-CSF; experiment: qPCR array in THP-1 cells; type: cell-based, human; details: LPS 10 ng/mL, 4 μM PEP-1, 4 h
Description: as §1, §2, §3, §4

[17] = tested on: Bax, GSKβ, Cytochrom-c, caspase-3; experiment: Western blot of apoptotic signals in amyloid-β damaged neural stem cells; type: cell-based, rat; details: 20 μM amyloid beta, PEP-1 1, 10 and 50 μM, FIGS. 15D, 15G-15I

In the case of EARPALLTSRLRFIPK [PEP-1], the “reactive oxygen species increased by amyloid-β” value [1] was “decreased”, the “cell mobility decreased by amyloid-β” value ([2]; FIG. 11) was “restored” and the “cell mobility compared to control” value ([2]; PEP-1 10 μM) was “increased even more”. For the same sequence, the “concentration at which protection from amyloid-β neurotoxicity began” value [3] was 10 µM, the “concentration of most effective protection from amyloid-β neurotoxicity” value [3] was 100 µM and the “CD40Ligand % Decrease by PEP 1 (LPS + PEP-1/LPS), p < 0.05” value [4] was “↓18%”. The “TNFR11B % Decrease by PEP 1 (LPS + PEP-1/LPS), p < 0.05” value [5] was “↓↓↓38%”, the “CCL4/MIP1β % Decrease by PEP 1 (LPS + PEP-1/LPS), p < 0.05” value [6] was “↓22%” and the “TNFα % Decrease by PEP 1 (LPS + PEP-1/LPS), p < 0.05” value [7] was “↓↓34%”. For the same sequence, the “ILlRa % Decrease by PEP 1 (LPS + PEP-1/LPS), p < 0.05” value [8] was “↓20%”, the “CCL26/MIP4α % Decrease by PEP 1 (LPS + PEP-1/LPS), p < 0.05” value [9] was “↓↓↓42%” and the “IL17C % Decrease by PEP 1 (LPS + PEP-1/LPS), p < 0.05” value [10] was “↓↓35%”. For the same sequence, the “GM-CSF % Decrease by PEP 1 (LPS + PEP-1/LPS), p < 0.05” value [11] was “↓↓29%”, the “ACSL5 (acyl-coA synthase) % Decrease by PEP 1 (LPS + PEP-1/LPS), p < 0.05” value [12] was “↓17%” and the “BCL10 % Decrease by PEP 1 (LPS + PEP-1/LPS), p < 0.05” value [13] was “↓↓32%”. For the same sequence, the “IkBα % Decrease by PEP 1 (LPS + PEP-1/LPS), p < 0.05” value [14] was “↓↓27%”, the “IL10 % Decrease by PEP 1 (LPS + PEP-1/LPS), p < 0.05” value [15] was “↓↓32%” and the “G-CSF % Decrease by PEP 1 (LPS + PEP-1/LPS), p < 0.05” value [16] was “↓↓↓48%”. The “protein expression levels of apoptotic signals Bax, GSKβ, Cytochrom-c, caspase-3” value [17] was “decreased the protein expression levels”.
